The text below walks through data of patent publication US20160318987A1 (MEDIMMUNE LIMITED, priority 2013, published 2016).

Where a SMILES comes first, the peptide text is derived from it. [ ]: non-standard residue; d: D form. αMeF = C[C@](N)(Cc1ccccc1)C(=O)O; αMeK = C[C@](N)(CCCCN)C(=O)O; Aib = CC(C)(N)C(=O)O

By EC50 is commonly meant the midpoint of the concentration-response curve. A high value points to lower potency in that assay.

Assay type in all cases: cell-based
What all share (conditions): n = 2

For one experiment, the target named is T1, hGIP-R (Homo sapiens, UniProt P48546).
T1 construct: expressed in transfected cells
T1 sequence (P48546 22-466): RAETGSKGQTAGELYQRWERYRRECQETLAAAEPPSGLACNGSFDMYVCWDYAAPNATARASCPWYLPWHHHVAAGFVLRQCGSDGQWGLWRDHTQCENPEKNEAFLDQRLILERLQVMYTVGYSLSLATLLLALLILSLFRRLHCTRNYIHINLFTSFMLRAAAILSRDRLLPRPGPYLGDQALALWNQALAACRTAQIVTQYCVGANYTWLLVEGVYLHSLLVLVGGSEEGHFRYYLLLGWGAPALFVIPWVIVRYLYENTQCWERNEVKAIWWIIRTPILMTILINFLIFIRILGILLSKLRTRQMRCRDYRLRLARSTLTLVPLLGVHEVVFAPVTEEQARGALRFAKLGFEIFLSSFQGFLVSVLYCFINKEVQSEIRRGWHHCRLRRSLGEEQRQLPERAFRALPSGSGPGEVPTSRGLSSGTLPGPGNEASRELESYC
Description: cAMP functional assay, cells expressing human GIP receptor (primary assay).

For the next experiment, the target named is T2, hGluc-R (Homo sapiens, UniProt P47871).
T2 construct: expressed in transfected cells
T2 sequence (P47871 26-477): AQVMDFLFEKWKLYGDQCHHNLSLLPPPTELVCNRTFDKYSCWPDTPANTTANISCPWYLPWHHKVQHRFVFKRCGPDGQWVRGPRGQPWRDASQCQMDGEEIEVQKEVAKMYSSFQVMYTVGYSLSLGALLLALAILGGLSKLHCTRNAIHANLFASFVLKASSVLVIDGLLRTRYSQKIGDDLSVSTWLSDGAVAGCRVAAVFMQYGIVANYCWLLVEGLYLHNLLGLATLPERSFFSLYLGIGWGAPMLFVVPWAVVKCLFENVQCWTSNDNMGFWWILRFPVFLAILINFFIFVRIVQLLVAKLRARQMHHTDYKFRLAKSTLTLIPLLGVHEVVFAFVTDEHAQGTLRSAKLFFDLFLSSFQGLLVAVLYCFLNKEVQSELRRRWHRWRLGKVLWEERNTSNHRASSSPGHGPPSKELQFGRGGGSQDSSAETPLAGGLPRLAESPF
Description: cAMP functional assay, cells expressing human glucagon receptor (primary assay).

The target of another experiment is T3, hGLP-1R (Homo sapiens, UniProt P43220).
T3 construct: expressed in transfected cells
T3 sequence (P43220 24-463): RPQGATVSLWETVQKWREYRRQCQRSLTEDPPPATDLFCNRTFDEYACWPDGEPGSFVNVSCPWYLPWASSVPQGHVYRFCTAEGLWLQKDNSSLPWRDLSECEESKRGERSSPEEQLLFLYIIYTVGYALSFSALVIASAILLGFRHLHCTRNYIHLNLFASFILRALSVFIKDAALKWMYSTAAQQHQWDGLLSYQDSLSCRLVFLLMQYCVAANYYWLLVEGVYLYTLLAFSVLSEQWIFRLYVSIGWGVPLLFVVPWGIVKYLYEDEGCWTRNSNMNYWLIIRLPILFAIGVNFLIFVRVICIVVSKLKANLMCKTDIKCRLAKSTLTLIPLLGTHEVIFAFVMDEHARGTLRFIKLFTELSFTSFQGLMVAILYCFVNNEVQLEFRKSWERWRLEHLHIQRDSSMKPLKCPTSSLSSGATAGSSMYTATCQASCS
Description: cAMP functional assay, cells expressing human GLP-1 receptor (primary assay).

Regarding `CC[C@H](C)[C@H](NC(=O)[C@H](Cc1ccccc1)NC(=O)[C@H](CCC(=O)O)NC(=O)[C@H](CCCCN)NC(=O)[C@H](C)NC(=O)[C@H](C)NC(=O)[C@H](CCC(N)=O)NC(=O)CNC(=O)[C@H](CCC(=O)O)NC(=O)[C@H](CC(C)C)NC(=O)[C@H](Cc1ccc(O)cc1)NC(=O)[C@H](CO)NC(=O)[C@H](CO)NC(=O)[C@@H](NC(=O)[C@H](CC(=O)O)NC(=O)[C@H](CO)NC(=O)[C@@H](NC(=O)[C@H](Cc1ccccc1)NC(=O)[C@@H](NC(=O)CNC(=O)[C@H](CCC(=O)O)NC(=O)C(C)(C)NC(=O)[C@@H](N)Cc1c[nH]cn1)[C@@H](C)O)[C@@H](C)O)C(C)C)C(=O)N[C@@H](C)C(=O)N[C@@](C)(Cc1c[nH]c2ccccc12)C(=O)N[C@@H](CC(C)C)C(=O)N[C@H](C(=O)N[C@@H](CCCCN)C(=O)NCC(=O)N[C@@H](CCCNC(=N)N)C(N)=O)C(C)C` [SEQ ID NO: 13, H-(Aib)^2-EGT^5 FTSDV^10 SSYLE^15 GQAAK^20 EFIA-(α-MeW)^25 LVKGR^30], the results for the EC50 at hGIP-R, at hGluc-R and at hGLP-1R were 164 nM, 164 nM and 0.026 nM, respectively.
As to `CC[C@H](C)[C@H](NC(=O)[C@](C)(Cc1ccccc1)NC(=O)[C@H](CCC(=O)O)NC(=O)[C@](C)(CCCCN)NC(=O)[C@H](C)NC(=O)[C@H](C)NC(=O)[C@H](CCC(N)=O)NC(=O)CNC(=O)[C@H](CCC(=O)O)NC(=O)[C@H](CC(C)C)NC(=O)[C@](C)(Cc1ccccc1)NC(=O)[C@H](CO)NC(=O)[C@H](CO)NC(=O)[C@@H](NC(=O)[C@H](CC(=O)O)NC(=O)[C@H](CO)NC(=O)[C@@H](NC(=O)[C@](C)(Cc1ccccc1)NC(=O)[C@H](CO)NC(=O)CNC(=O)[C@H](CCC(=O)O)NC(=O)C(C)(C)NC(=O)[C@@H](N)Cc1c[nH]cn1)[C@@H](C)O)C(C)C)C(=O)N[C@@H](C)C(=O)N[C@@](C)(Cc1ccccc1)C(=O)N[C@@H](CC(C)C)C(=O)N[C@H](C(=O)N[C@@H](CCCCN)C(=O)NCC(=O)NCC(N)=O)C(C)C` [SEQ ID NO: 44, H-(Aib)^2-EG-(S)^5-(α-MeF)^6-TSDV^10 SS-(α-MeF)^13-LE^15 GQAA-(α-MeK)^20 E-(α-MeF)^22-IA-(α-MeF)^25 LVKG-(G)^30] (H-H[Aib]EGS[αMeF]TSDVSS[αMeF]LEGQAA[αMeK]E[αMeF]IA[αMeF]LVKGG-NH2), the results for the EC50 at hGIP-R, at hGluc-R and on hGLP-1R were 104 nM, 104 nM and 0.00985 nM, respectively.
As to `CC[C@H](C)[C@H](NC(=O)[C@H](Cc1ccccc1)NC(=O)[C@H](CCC(=O)O)NC(=O)[C@](C)(CCCCN)NC(=O)[C@H](C)NC(=O)[C@H](C)NC(=O)[C@H](CCC(N)=O)NC(=O)CNC(=O)[C@H](CCC(=O)O)NC(=O)[C@H](CC(C)C)NC(=O)[C@H](Cc1ccc(O)cc1)NC(=O)[C@H](CO)NC(=O)[C@H](CO)NC(=O)[C@@H](NC(=O)[C@H](CC(=O)O)NC(=O)[C@H](CO)NC(=O)[C@@H](NC(=O)[C@H](Cc1ccccc1)NC(=O)[C@@H](NC(=O)CNC(=O)[C@H](CCC(=O)O)NC(=O)C(C)(C)NC(=O)[C@@H](N)Cc1c[nH]cn1)[C@@H](C)O)[C@@H](C)O)C(C)C)C(=O)N[C@@H](C)C(=O)N[C@@H](Cc1c[nH]c2ccccc12)C(=O)N[C@@H](CC(C)C)C(=O)N[C@H](C(=O)N[C@@H](CCCCN)C(=O)NCC(=O)N[C@@H](CCCNC(=N)N)C(N)=O)C(C)C` [SEQ ID NO: 20, H-(Aib)^2-EGT^5 FTSDV^10 SSYLE^15 GQAA-(α-MeK)^20 EFIAW^25 LVKGR^30], the EC50 at hGIP-R came to 110 nM; on hGluc-R it was 110 nM; on hGLP-1R it was 0.0167 nM.
For `CC[C@H](C)[C@H](NC(=O)C(C)(C)NC(=O)[C@H](CCC(=O)O)NC(=O)[C@H](CCCCN)NC(=O)[C@H](C)NC(=O)[C@H](C)NC(=O)[C@H](CCC(N)=O)NC(=O)CNC(=O)[C@H](CCC(=O)O)NC(=O)[C@H](CC(C)C)NC(=O)[C@H](Cc1ccc(O)cc1)NC(=O)[C@H](CO)NC(=O)[C@H](CO)NC(=O)[C@@H](NC(=O)[C@H](CC(=O)O)NC(=O)[C@H](CO)NC(=O)[C@@H](NC(=O)[C@H](Cc1ccccc1)NC(=O)[C@@H](NC(=O)CNC(=O)[C@H](CCC(=O)O)NC(=O)C(C)(C)NC(=O)[C@@H](N)Cc1c[nH]cn1)[C@@H](C)O)[C@@H](C)O)C(C)C)C(=O)N[C@@H](C)C(=O)N[C@@H](Cc1c[nH]c2ccccc12)C(=O)N[C@@H](CC(C)C)C(=O)N[C@H](C(=O)N[C@@H](CCCCN)C(=O)NCC(=O)N[C@@H](CCCNC(=N)N)C(N)=O)C(C)C` [SEQ ID NO: 12, H-(Aib)^2-EGT^5 FTSDV^10 SSYLE^15 GQAAK^20 E-(Aib)^22IAW^25 LVKGR^30] (H-H[Aib]EGTFTSDVSSYLEGQAAKE[Aib]IAWLVKGR-NH2), the EC50 on hGIP-R was determined as 147 nM; on hGluc-R, 147 nM; at hGLP-1R it was 2.58 nM.
Take `CC[C@H](C)[C@H](NC(=O)[C@H](Cc1ccccc1)NC(=O)[C@H](CCC(=O)O)NC(=O)[C@H](CCCCN)NC(=O)[C@H](C)NC(=O)[C@H](C)NC(=O)[C@H](CCC(N)=O)NC(=O)CNC(=O)[C@H](CCC(=O)O)NC(=O)[C@H](CC(C)C)NC(=O)C(C)(C)NC(=O)[C@H](CO)NC(=O)[C@H](CO)NC(=O)[C@@H](NC(=O)[C@H](CC(=O)O)NC(=O)[C@H](CO)NC(=O)[C@@H](NC(=O)[C@H](Cc1ccccc1)NC(=O)[C@@H](NC(=O)CNC(=O)[C@H](CCC(=O)O)NC(=O)C(C)(C)NC(=O)[C@@H](N)Cc1c[nH]cn1)[C@@H](C)O)[C@@H](C)O)C(C)C)C(=O)N[C@@H](C)C(=O)N[C@@H](Cc1c[nH]c2ccccc12)C(=O)N[C@@H](CC(C)C)C(=O)N[C@H](C(=O)N[C@@H](CCCCN)C(=O)NCC(=O)N[C@@H](CCCNC(=N)N)C(N)=O)C(C)C` [SEQ ID NO: 10, H-(Aib)^2-EGT^5 FTSDV^10 SS-(Aib)^13-LE^15 GQAAK^20 EFIAW^25 LVKGR^30] (H-H[Aib]EGTFTSDVSS[Aib]LEGQAAKEFIAWLVKGR-NH2): the EC50 on hGIP-R was determined as 131 nM; at hGluc-R it was 131 nM; on hGLP-1R, 0.0437 nM.
